Experimental data from patent US10294202B2, “Pyrrolidinones as herbicides” (FMC Corporation, priority 2013, dated 2019).

Key:
rice = experiment: Test B flooded paddy test; assay type: in vivo, Oryza sativa; details: 500 g ai/ha, Flood; scale of 0 to 100 where 0 is no effect and 100 is complete control
Method in brief: (§1)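 Plants were grown to the 2-leaf stage, then pots were flooded to 3 cm above the soil and compound was applied directly into the paddy water, with that depth held throughout. After 13 to 15 days in a greenhouse, injury was rated visually against untreated controls on a 0 to 100 scale (100 = complete control).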

blackgrass = experiment: Test A postemergence herbicide test; assay type: in vivo, Alopecurus myosuroides; details: for Plant response rating, Blackgrass: 125 g ai/ha, 0 to 100 scale, 0 no effect, 100 complete control; for Blackgrass plant response rating (0 to 100 scale, 0 is no effect, 100 is complete control): 500 g ai/ha
Method in brief: (§2)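 Young potted plants in a loam–sand mix, one- to two-leaf stage and 2–10 cm tall, receive the test chemical postemergence and stay in a greenhouse for approximately 10 days. Injury is then judged by eye against untreated plants, scored 0 (none) to 100 (complete control).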

ragweed = experiment: Test A pre-/postemergence herbicide test; assay type: in vivo, Ambrosia elatior; details: for Plant response rating, Ragweed: 0 to 100 scale
Method in brief: (§3)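 Both application timings used compounds in a non-phytotoxic solvent plus surfactant. Pre-emergence: soil sprayed directly after seeding into loam/sand. Post-emergence: foliage of 2–10 cm seedlings (1–2 leaves) sprayed. Injury rated ~10 days later, 0–100.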

sedge, umbrella = experiment: Test B flooded paddy test; assay type: in vivo, Cyperus difformis; details: 500 g ai/ha, Flood; scale of 0 to 100 where 0 is no effect and 100 is complete control
Method in brief: as §1

giant foxtail = experiment: Test A pre-/postemergence herbicide test; assay type: in vivo, Setaria faberii; details: for Plant response rating, Foxtail, Giant: 0 to 100 scale
Method in brief: as §3

ryegrass, Italian = experiment: Test A pre-/postemergence herbicide test; assay type: in vivo, Lolium multiflorum; details: for Plant response rating, Ryegrass, Italian: 0 to 100 scale
Method in brief: as §3

galium = experiment: Test A postemergence herbicide test; assay type: in vivo, Galium aparine; details: for Plant response rating, Galium: 125 g ai/ha, 0 to 100 scale, 0 no effect, 100 complete control; for Galium plant response rating (0 to 100 scale, 0 is no effect, 100 is complete control): 500 g ai/ha
Method in brief: as §2

pigweed = experiment: Test A pre-/postemergence herbicide test; assay type: in vivo, Amaranthus retroflexus; details: for Plant response rating, Pigweed: 0 to 100 scale
Method in brief: as §3

wheat = experiment: Test A pre-/postemergence herbicide test; assay type: in vivo, Triticum aestivum; details: Postemergence; for Plant response rating, Wheat: 125 g ai/ha, 0 to 100 scale, 0 no effect, 100 complete control; for Wheat plant response rating (0 to 100 scale, 0 is no effect, 100 is complete control): 500 g ai/ha
Method in brief: as §3

barnyardgrass [1] = experiment: Test A pre-/postemergence herbicide test; assay type: in vivo, Echinochloa crus-galli
Method in brief: as §3

barnyardgrass [2] = experiment: Test B flooded paddy test; assay type: in vivo, Echinochloa crus-galli; details: 500 g ai/ha, Flood; scale of 0 to 100 where 0 is no effect and 100 is complete control
Method in brief: as §1

kochia = experiment: Test A pre-/postemergence herbicide test; assay type: in vivo, Kochia scoparia; details: for Plant response rating, Kochia: 0 to 100 scale
Method in brief: as §3

corn = experiment: Test A pre-/postemergence herbicide test; assay type: in vivo, Zea mays; details: Postemergence; for Plant response rating, Corn: 125 g ai/ha, 0 to 100 scale, 0 no effect, 100 complete control; for Corn plant response rating (0 to 100 scale, 0 is no effect, 100 is complete control): 500 g ai/ha
Method in brief: as §3

ducksalad = experiment: Test B flooded paddy test; assay type: in vivo, Heteranthera limosa; details: 500 g ai/ha, Flood; scale of 0 to 100 where 0 is no effect and 100 is complete control
Method in brief: as §1

[3] = 125 g ai/ha, visual rating, 0 no effect, 100 complete control, approximately 10 days, preemergence
[4] = Postemergence, 125 g ai/ha, 0 no effect, 100 complete control
[5] = 125 g ai/ha, visual rating, 0 to 100 scale, 0 no effect, 100 complete control, approximately 10 days, preemergence
[6] = Postemergence, 125 g ai/ha, 0 to 100 scale, 0 no effect, 100 complete control
[7] = preemergence, 500 g ai/ha, 0 to 100 scale (0 no effect, 100 complete control)

COc1cc(C2CNC(=O)C2C(=O)Nc2ccc(F)c(F)c2F)ccc1F (racemic) [Compound 132]
Plant response rating, Rice (rice): 0
Plant response rating, Blackgrass (blackgrass): 0
Blackgrass plant response rating (0 to 100 scale, 0 is no effect, 100 is complete control) (blackgrass): 0
Plant response rating, Ragweed (ragweed; [3]): 0
Plant response rating, Ragweed (ragweed; [4]): 0
Ragweed plant response rating (0 to 100 scale, 0 is no effect, 100 is complete control) (ragweed; Postemergence, 500 g ai/ha): 0
Plant response rating, Ragweed (ragweed; preemergence, 500 g ai/ha): 0
Plant response rating, Sedge, Umbrella (sedge, umbrella): 0
Plant response rating, Foxtail, Giant (giant foxtail; [3]): 70
Plant response rating, Foxtail, Giant (giant foxtail; [4]): 50
Foxtail, Giant plant response rating (0 to 100 scale, 0 is no effect, 100 is complete control) (giant foxtail; Postemergence, 500 g ai/ha): 70
Plant response rating, Foxtail, Giant (giant foxtail; preemergence, 500 g ai/ha): 80
Plant response rating, Ryegrass, Italian (ryegrass, Italian; [3]): 0
Plant response rating, Ryegrass, Italian (ryegrass, Italian; [4]): 0
Ryegrass, Italian plant response rating (0 to 100 scale, 0 is no effect, 100 is complete control) (ryegrass, Italian; Postemergence, 500 g ai/ha): 0
Plant response rating, Ryegrass, Italian (ryegrass, Italian; preemergence, 500 g ai/ha): 0
Plant response rating, Galium (galium): 0
Galium plant response rating (0 to 100 scale, 0 is no effect, 100 is complete control) (galium): 0
Plant response rating, Pigweed (pigweed; [3]): 0
Plant response rating, Pigweed (pigweed; [4]): 0
Pigweed plant response rating (0 to 100 scale, 0 is no effect, 100 is complete control) (pigweed; Postemergence, 500 g ai/ha): 0
Plant response rating, Pigweed (pigweed; preemergence, 500 g ai/ha): 0
Plant response rating, Wheat (wheat): 0
Wheat plant response rating (0 to 100 scale, 0 is no effect, 100 is complete control) (wheat): 0
Plant response rating, Barnyardgrass (barnyardgrass [1]; [5]): 70
Plant response rating, Barnyardgrass (barnyardgrass [1]; [6]): 60
Barnyardgrass plant response rating (0 to 100 scale, 0 is no effect, 100 is complete control) (barnyardgrass [1]; Postemergence, 500 g ai/ha): 80
Plant response rating, Barnyardgrass (barnyardgrass [1]; [7]): 90
Plant response rating, Barnyardgrass (barnyardgrass [2]): 40
Plant response rating, Kochia (kochia; [3]): 0
Plant response rating, Kochia (kochia; [4]): 0
Kochia plant response rating (0 to 100 scale, 0 is no effect, 100 is complete control) (kochia; Postemergence, 500 g ai/ha): 10
Plant response rating, Kochia (kochia; preemergence, 500 g ai/ha): 0
Plant response rating, Corn (corn): 0
Corn plant response rating (0 to 100 scale, 0 is no effect, 100 is complete control) (corn): 0
Plant response rating, Ducksalad (ducksalad): 85

Cc1cc(C2CNC(=O)C2C(=O)Nc2ccccc2F)ccc1F (racemic) [Compound 139]
Plant response rating, Rice (rice): 0
Plant response rating, Blackgrass (blackgrass): 0
Blackgrass plant response rating (0 to 100 scale, 0 is no effect, 100 is complete control) (blackgrass): 20
Plant response rating, Ragweed (ragweed; [3]): 0
Plant response rating, Ragweed (ragweed; [4]): 0
Ragweed plant response rating (0 to 100 scale, 0 is no effect, 100 is complete control) (ragweed; Postemergence, 500 g ai/ha): 0
Plant response rating, Ragweed (ragweed; preemergence, 500 g ai/ha): 0
Plant response rating, Sedge, Umbrella (sedge, umbrella): 0
Plant response rating, Foxtail, Giant (giant foxtail; [3]): 50
Plant response rating, Foxtail, Giant (giant foxtail; [4]): 30
Foxtail, Giant plant response rating (0 to 100 scale, 0 is no effect, 100 is complete control) (giant foxtail; Postemergence, 500 g ai/ha): 30
Plant response rating, Foxtail, Giant (giant foxtail; preemergence, 500 g ai/ha): 90
Plant response rating, Ryegrass, Italian (ryegrass, Italian; [3]): 0
Plant response rating, Ryegrass, Italian (ryegrass, Italian; [4]): 0
Ryegrass, Italian plant response rating (0 to 100 scale, 0 is no effect, 100 is complete control) (ryegrass, Italian; Postemergence, 500 g ai/ha): 0
Plant response rating, Ryegrass, Italian (ryegrass, Italian; preemergence, 500 g ai/ha): 0
Plant response rating, Galium (galium): 0
Galium plant response rating (0 to 100 scale, 0 is no effect, 100 is complete control) (galium): 30
Plant response rating, Pigweed (pigweed; [3]): 0
Plant response rating, Pigweed (pigweed; [4]): 0
Pigweed plant response rating (0 to 100 scale, 0 is no effect, 100 is complete control) (pigweed; Postemergence, 500 g ai/ha): 0
Plant response rating, Pigweed (pigweed; preemergence, 500 g ai/ha): 20
Plant response rating, Wheat (wheat): 0
Wheat plant response rating (0 to 100 scale, 0 is no effect, 100 is complete control) (wheat): 0
Plant response rating, Barnyardgrass (barnyardgrass [1]; [5]): 70
Plant response rating, Barnyardgrass (barnyardgrass [1]; [6]): 80
Barnyardgrass plant response rating (0 to 100 scale, 0 is no effect, 100 is complete control) (barnyardgrass [1]; Postemergence, 500 g ai/ha): 90
Plant response rating, Barnyardgrass (barnyardgrass [1]; [7]): 90
Plant response rating, Barnyardgrass (barnyardgrass [2]): 60
Plant response rating, Kochia (kochia; [3]): 0
Plant response rating, Kochia (kochia; [4]): 0
Kochia plant response rating (0 to 100 scale, 0 is no effect, 100 is complete control) (kochia; Postemergence, 500 g ai/ha): 0
Plant response rating, Kochia (kochia; preemergence, 500 g ai/ha): 30
Plant response rating, Corn (corn): 0
Corn plant response rating (0 to 100 scale, 0 is no effect, 100 is complete control) (corn): 0
Plant response rating, Ducksalad (ducksalad): 100

Cc1cc(C2CNC(=O)C2C(=O)Nc2ccc(F)cc2F)ccc1F (racemic) [Compound 140]
Plant response rating, Rice (rice): 0
Plant response rating, Blackgrass (blackgrass): 0
Blackgrass plant response rating (0 to 100 scale, 0 is no effect, 100 is complete control) (blackgrass): 20
Plant response rating, Ragweed (ragweed; [3]): 0
Plant response rating, Ragweed (ragweed; [4]): 0
Ragweed plant response rating (0 to 100 scale, 0 is no effect, 100 is complete control) (ragweed; Postemergence, 500 g ai/ha): 0
Plant response rating, Ragweed (ragweed; preemergence, 500 g ai/ha): 0
Plant response rating, Sedge, Umbrella (sedge, umbrella): 0
Plant response rating, Foxtail, Giant (giant foxtail; [3]): 50
Plant response rating, Foxtail, Giant (giant foxtail; [4]): 0
Foxtail, Giant plant response rating (0 to 100 scale, 0 is no effect, 100 is complete control) (giant foxtail; Postemergence, 500 g ai/ha): 50
Plant response rating, Foxtail, Giant (giant foxtail; preemergence, 500 g ai/ha): 90
Plant response rating, Ryegrass, Italian (ryegrass, Italian; [3]): 0
Plant response rating, Ryegrass, Italian (ryegrass, Italian; [4]): 0
Ryegrass, Italian plant response rating (0 to 100 scale, 0 is no effect, 100 is complete control) (ryegrass, Italian; Postemergence, 500 g ai/ha): 0
Plant response rating, Ryegrass, Italian (ryegrass, Italian; preemergence, 500 g ai/ha): 0
Plant response rating, Galium (galium): 0
Galium plant response rating (0 to 100 scale, 0 is no effect, 100 is complete control) (galium): 30
Plant response rating, Pigweed (pigweed; [3]): 0
Plant response rating, Pigweed (pigweed; [4]): 0
Pigweed plant response rating (0 to 100 scale, 0 is no effect, 100 is complete control) (pigweed; Postemergence, 500 g ai/ha): 0
Plant response rating, Pigweed (pigweed; preemergence, 500 g ai/ha): 0
Plant response rating, Wheat (wheat): 0
Wheat plant response rating (0 to 100 scale, 0 is no effect, 100 is complete control) (wheat): 0
Plant response rating, Barnyardgrass (barnyardgrass [1]; [5]): 80
Plant response rating, Barnyardgrass (barnyardgrass [1]; [6]): 70
Barnyardgrass plant response rating (0 to 100 scale, 0 is no effect, 100 is complete control) (barnyardgrass [1]; Postemergence, 500 g ai/ha): 80
Plant response rating, Barnyardgrass (barnyardgrass [1]; [7]): 90
Plant response rating, Barnyardgrass (barnyardgrass [2]): 70
Plant response rating, Kochia (kochia; [3]): 0
Plant response rating, Kochia (kochia; [4]): 0
Kochia plant response rating (0 to 100 scale, 0 is no effect, 100 is complete control) (kochia; Postemergence, 500 g ai/ha): 0
Plant response rating, Kochia (kochia; preemergence, 500 g ai/ha): 0
Plant response rating, Corn (corn): 0
Corn plant response rating (0 to 100 scale, 0 is no effect, 100 is complete control) (corn): 0
Plant response rating, Ducksalad (ducksalad): 100
